The record followed here is US9155792B2, “RecA inhibitors with antibiotic activity, compositions and methods of use” (Trustees of Boston University, priority 2006, dated 2015).

SMILES strings stand for the structures.

The target of one experiment is T1, E. coli RecA protein (Escherichia coli, UniProt P0A7G6).
T1 construct: purchased New England Biolabs
Kind of experiment: RecA ATPase luciferase assay. Format: biochemical. The following applies: compounds of FIGS. 2A and 2B. The protocol: RecA is a DNA-dependent ATPase (i.e., it catalyzes the reaction adenosine triphosphate [ATP]→adenosine diphosphate [ADP]). An assay was developed for RecA ATPase activity based on detection of the amount of ATP remaining in a reaction mixture following incubation of RecA protein, DNA, and ATP. In the assay, E. coli RecA protein is incubated in reaction buffer with DNA, ATP, and any test compound or compounds for a measured amount of time. The quantity of ATP remaining after the RecA reaction is quantitated using a subsequent luciferase assay. The amount of ATP remaining can be compared to controls containing either a known inhibitor (full inhibition control) or no test compound (full activity control).
Kinase glo, Adenosine triphosphate, Adenosine 5′-O-(3-thiotriphosphate) plus and 384 well plates were obtained from Fisher, M13mp18 Single-stranded DNA, RecA protein, and T4 polynucleotide kinase reaction buffer (70 mM Tris-HCl pH7.5; 10 mM MgCl2; 5 mM DTT) were obtained from New England Biolabs.
Final reaction mixture contains: 0.5 μl of M13 single stranded DNA (250 μg/ml); 1.0 μl of 10×PHK buffer; 0.25 μl of RecA (2 mg/ml); 0.25 μl of 1 mM ATP; 0.25 μl of test compound in DMSO; and 12.0 μl of H2O.
Test compounds are incubated at room temperature in the presence of RecA protein and DNA prior to addition of ATP. This can be achieved by the preparation of two mixes, as indicated below. Desirably, both a no-DNA and a DNA/DMSO-only (i.e., no test compound) control were included.
The following steps are then performed: (1) Add 7.75 μl of mix 1 to the well of a 384 well plate; (2) Add 0.5 μl of the compound of interest; (3) Incubate at room temperature for 5 minutes; (4) Add 2.5 μl of the ATP mix. Incubate at room temperature for 30 minutes; (5) Add 12.5 μl of Promega Kinase glo plus; (6) Incubate at room temp for 10 minutes or more; and (7) Measure luminescence of the reaction.
Tested compounds were obtained from Boston University (1205 compounds from CMLD diversity library, available from Dr. Scott Schauss), IndoFine (66 compounds based on flavone structure), ChemdiV (48 compounds known to be ATPase inhibitors and 720 compounds structurally related to CB101 (described, for example, in U.S. Ser. No. 60/662,038), and Asinex. Five (5) tested compounds were bisflavones and 28 were predicted, based on structural modeling (see, for example, Example 20) to dock with Rec A. Many of the compounds are lipophilic, natural-product-like compounds. Others are flavones, bisflavones, flavonoids, coumarins, and/or heterocyclic compounds.
Percent inhibition is calculated according to the following equation:
[formula] A value of “−1” indicates higher than 50 μg/ml, therefore undetermined

The test system of a further experiment is S. aureus cells. Kind of experiment: Mutation/resistance assay (resistance to ciprofloxacin). Format: cell-based. The protocol: This assay measures the rate at which mutant cells arise in the presence of an antibiotic agent. Cells are grown in the presence of antibiotic agent at a concentration above (generally well above, e.g., 4× or 8×) its MIC, and further in the presence or absence of a test agent (that may inhibit or enhance mutation).
Every 24 hours, an aliquot is removed from the culture and is diluted so that the antibiotic agent is no longer present at a concentration above its MIC (e.g., so that the antibiotic agent is present at 0.5×MIC or less). These aliquoted samples are then assayed to determine whether they can grow in the presence of the antibiotic agent. Specifically, when growth is observed in the presence of antibiotic agent at a concentration that is 4×MIC, then resistance is said to have developed. Test compounds can therefore be assayed to assess whether or not they can reduce the incidence of resistance (e.g., by inhibiting mutation).
These aliquoted samples were then assayed to determine whether they can grow in the presence of ciprofloxacin. […]

The test system of experiment [1] is S. aureus strain S3 (ISP 794). Kind of experiment: Cell-based survival assay, S. aureus strain S3 (RecA+). Conditions: 1 μg/ml ciprofloxacin + 25 μg/ml hinokiflavone, 16 hour time point.

T1 sequence (P0A7G6 2-353): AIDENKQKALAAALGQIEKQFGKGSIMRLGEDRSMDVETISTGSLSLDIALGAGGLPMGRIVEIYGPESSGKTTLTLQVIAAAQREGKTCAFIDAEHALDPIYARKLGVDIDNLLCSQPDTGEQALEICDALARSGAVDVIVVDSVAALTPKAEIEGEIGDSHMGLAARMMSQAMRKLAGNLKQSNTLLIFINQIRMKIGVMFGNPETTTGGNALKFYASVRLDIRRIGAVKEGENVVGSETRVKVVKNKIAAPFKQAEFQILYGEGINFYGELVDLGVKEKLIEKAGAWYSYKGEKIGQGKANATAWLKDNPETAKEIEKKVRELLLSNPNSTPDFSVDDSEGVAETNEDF

For the compound `O=c1cc(-c2ccc(O)cc2)oc2cc(O)cc(O)c12` [apigenin], the “activity in RecA ATPase screen” value on E. coli RecA protein is on record as “particularly active”.

As for `O=c1cc(-c2ccc(O)cc2)oc2cc(O)c(O)c(O)c12` [6-hydroxy-apigenin], the “activity in RecA ATPase screen” value at E. coli RecA protein was “particularly active”.

Turning to `O.O.O=c1c(O)c(-c2ccc(O)c(O)c2)oc2cc(O)cc(O)c12` [quercetin dihydrate], the “activity in RecA ATPase screen” value on E. coli RecA protein was “particularly active”.

Turning to `O=c1c(O)c(-c2ccc(O)c(O)c2)oc2cc(O)c(O)c(O)c12` [quercetagetin], the “activity in RecA ATPase screen” value on E. coli RecA protein is given as “particularly active”.

Turning to `O=c1cc(-c2ccc(Oc3c(O)cc4oc(-c5ccc(O)cc5)cc(=O)c4c3O)cc2)oc2cc(O)cc(O)c12` [hinokiflavone], the “Number of Wells in which Growth Observed in Presence of Ciprofloxacin at 4 × MIC” value with S. aureus cells (culture grown 0 days in 4×MIC ciprofloxacin, +Hinokiflavone (25 μg/ml)) is 0; in the experiment on S. aureus cells (culture grown 1 day in 4×MIC ciprofloxacin, +Hinokiflavone (25 μg/ml)) it was 0; in the experiment with S. aureus cells (culture grown 5 days in 4×MIC ciprofloxacin, +Hinokiflavone (25 μg/ml)), 0; in the experiment on S. aureus cells (culture grown 6 days in 4×MIC ciprofloxacin, +Hinokiflavone (25 μg/ml)), 0; in the experiment on S. aureus cells (culture grown 7 days in 4×MIC ciprofloxacin, +Hinokiflavone (25 μg/ml)) it was 3; in the experiment with S. aureus cells (culture grown 10 days in 4×MIC ciprofloxacin, +Hinokiflavone (25 μg/ml)) it was 4. Also, the “fewer CFUs in presence of hinokiflavone as compared with its absence” value in experiment [1] is “approximately 100 fold”.

`O=c1c(O)c(-c2ccc(O)cc2)oc2cc(O)ccc12` [3,7,4′-trihydroxyflavone]: the “activity in RecA ATPase screen” value on E. coli RecA protein is on record as “particularly active”.

Take `O=c1cc(-c2ccc(O)cc2)oc2cc(O[C@@H]3O[C@H](CO)[C@@H](O)[C@H](O)[C@H]3O)cc(O)c12` [apigenin-7-O-glucoside]: the “activity in RecA ATPase screen” value at E. coli RecA protein was “particularly active”.

`O=C(O)c1cn(C2CC2)c2cc(N3CCNCC3)c(F)cc2c1=O` [ciprofloxacin, reference compound]: the “Number of Wells in which Growth Observed in Presence of Ciprofloxacin at 4 × MIC” value is 0 with S. aureus cells (culture grown 0 days in 4×MIC ciprofloxacin, −Hinokiflavone); 1 in the experiment on S. aureus cells (culture grown 1 day in 4×MIC ciprofloxacin, −Hinokiflavone); 2 in the experiment on S. aureus cells (culture grown 5 days in 4×MIC ciprofloxacin, −Hinokiflavone); 2 in the experiment on S. aureus cells (culture grown 6 days in 4×MIC ciprofloxacin, −Hinokiflavone); 3 with S. aureus cells (culture grown 7 days in 4×MIC ciprofloxacin, −Hinokiflavone); 11 with S. aureus cells (culture grown 10 days in 4×MIC ciprofloxacin, −Hinokiflavone).

In the case of `COc1cc(-c2oc3cc(O)cc(O)c3c(=O)c2O)ccc1O` [isorhamnetin], on E. coli RecA protein, the “activity in RecA ATPase screen” value is reported as “particularly active”.

With `O=c1c(O)cc([C@H]2Oc3cc(O)cc(O)c3C[C@H]2O)cc2c([C@H]3Oc4cc(O)cc(O)c4C[C@H]3O)cc(O)c(O)c12` [theaflavin], the “activity in RecA ATPase screen” value on E. coli RecA protein is listed as “particularly active”.

With `O=c1c(O)c(-c2ccc(O)cc2O)oc2cc(O)cc(O)c12` [morin], the “activity in RecA ATPase screen” value on E. coli RecA protein is given as “particularly active”.

Consider `O=c1c(O)c(-c2ccc(O)cc2)oc2cc(O)cc(O)c12` [kaempferol], for which the “activity in RecA ATPase screen” value at E. coli RecA protein is reported as “particularly active”.

With `O=C(c1ccc(O)c(O)c1)c1c(O)cc(O)cc1O` [maclurin], the “activity in RecA ATPase screen” value on E. coli RecA protein is “particularly active”.

Take `O=c1c(O)c(-c2ccc(O)c(O)c2)oc2cc(O)ccc12` [fisetin]: on E. coli RecA protein, the “activity in RecA ATPase screen” value was “particularly active”.
